Laboratory results taken from patent US7084158B2, “Substituted propargylamines” (Bayer Cropscience S.A., priority 2001, dated 2006).

Tests used:
Assay type in all cases: in vivo
Design in all cases: key: compounds were considered to be active when, at a concentration of 500 ppm or less, they had an activity on the harmful organisms of 50% or more
[1] = tested on: Rhipicephalus sanguineus; assay: Example AF: treated filter paper, tick larvae mortality; details: 500 ppm or less, after 24 hours
Procedure: The formulated compound was pipetted onto filter paper. After the solvent had evaporated, 20–30 tick larvae (Rhipicephalus sanguineus) were placed onto the filter paper. After 24 hours at about 25° C., the effect of the compound on the ticks was determined (mortality). The following examples were active: 197, 1057.

[2] = tested on: Diabrotica undecimpunctata; assay: Example C: corn rootworm eggs with maize corn, mortality; details: 500 ppm or less; 4-5-day-old eggs; after 6 days
[3] = tested on: Leptinotarsa decemlineata; assay: Example L: potato leaves and larvae sprayed, Colorado beetle mortality; details: 500 ppm or less, after 4 days
Procedure: Potato leaves were populated with larvae of the Colorado beetle (Leptinotarsa decemlineata). Leaves and larvae were then sprayed with an aqueous solution of the formulated compound to be examined. After 4 days of storage at about 25° C., the effect of the compound on the larvae was determined (mortality). The compounds of the following examples were active: 60, 70, 1002, 1004, 1005, 1036, 1047, 197.

[4] = tested on: Trialeurodes vaporariorum; assay: Example AD: bush beans sprayed, white fly larvicidal action; details: 500 ppm or less; bush beans sprayed after hatching; after 11 days
Procedure: For oviposition, bush beans (Phaseolus vulgaris) were populated for 48 hours with adults of the white fly (Trialeurodes vaporariorum). After the larvae had hatched, the plants were sprayed to run-off point with an aqueous solution of the formulated compound to be examined. After 11 days, the larvicidal action was determined. The following examples were active: 1036, 70, 60, 1040, 197.

[5] = tested on: Ctenocephalides felis; assay: Example M: cat fleas fed with treated cattle blood, mortality; details: 500 ppm or less; adult fleas fed blood-preparation mixture; after 48 hours
Procedure: The formulated compound was mixed with defibrinated cattle blood. 10 adult cat fleas (Ctenocephalides felis) were fed with this blood-preparation mixture. After 48 hours at about 38° C., the effect of the compound on the fleas was determined (mortality). The compounds of the following examples were active: 70, 1002, 1004, 1005, 1036, 60, 197, 1057.

[6] = tested on: Spodoptera exigua; assay: Example Z: cotton leaves with larvae sprayed, sugar beet armyworm mortality; details: 500 ppm or less; cotton leaves populated then sprayed; L2 larvae; after 4 days
Procedure: Cotton leaves were populated with 5 L2 larvae of the sugar beet armyworm (Spodoptera exigua) and then sprayed with an aqueous solution of the formulated compound to be examined. After 4 days of storage at about 23° C., the mortality among the larvae was determined. The following examples were active: 1036, 70, 60, 1047, 197.

[7] = tested on: Plutella maculipennis; assay: Example K: sprayed white cabbage leaf, diamondback moth larvae mortality; details: 500 ppm or less, after 3 days
Procedure: A white cabbage leaf was sprayed with an aqueous solution of the formulated compound to be examined. After the spray coating had dried, the treated leaf was populated with larvae of the diamondback moth (Plutella maculipennis). After 3 days of storage at about 23° C., the effect of the compound on the larvae was determined (mortality). The compounds of the following examples were active: 60, 70, 1002, 1004, 1005, 1036, 197.

[8] = tested on: Carpocapsa pomonella; assay: Example AA: insect diet mixed with compound, codling moth L1 larvae mortality; details: 500 ppm or less, compound mixed into insect diet, after 14 days
Procedure: Insect diet was mixed with an aqueous solution of the formulated compound to be examined and populated with 10 L1 larvae of the codling moth (Carpocapsa pomonella). After 14 days of storage at about 23° C., the mortality among the larvae was determined. The following examples were active: 70, 197.

[9] = tested on: Nilaparvata lugens; assay: Example A: rice leaf dip, leafhopper larvae mortality; details: 500 ppm or less; L3 larvae on dipped rice plants; after 6 days
Procedure: The leaves of 12 rice plants having a stem length of 8 cm were dipped for 5 seconds into an aqueous solution of the formulated compound to be examined. After the solution had run off, the rice plants treated in this manner were placed into a Petri dish and populated with about 20 larvae (L3 stage) of the rice leafhopper species Nilaparvata lugens. The Petri dish was closed and then stored in a climatized chamber (16 hours of light/day, 25° C., 40–60% relative atmospheric humidity). After 6 days of storage, the mortality among the leafhopper larvae was determined. The compounds of the following examples were active: Nos. 29, 32, 42, 43, 51, 70, 84, 1002, 1004, 1005, 1040, 180, 184, 193, 197, 203, 209, 1059, 264, 265, 1066.

[10] = tested on: Diabrotica undecimpunctata; assay: Example AC: treated soil, southern corn rootworm eggs mortality; details: 500 ppm or less, eggs added after 0d, 21d and 42d, after 2 weeks
Procedure: An aqueous solution of the formulated compound to be examined was mixed with soil. After 0d, 21d and 42d, eggs of the southern corn rootworm (Diabrotica undecimpunctata) were placed together with 2 pre-swollen maize corns into a dish, covered with the treated soil and moisted with 10 ml of water. Soil and eggs were placed in a greenhouse (23° C., 60% relative atmosphere humidity). After 2 weeks of storage, the effect of the compound on the eggs and any larvae hatched therefrom was determined (mortality). The following examples were active: 70, 60, 197, 204.

[11] = tested on: Spodoptera exigua; assay: Example Y: cotton plants sprayed, cut leaves, sugar beet armyworm mortality; details: 500 ppm or less, leaves cut after drying, L2 larvae, after 4 days
Procedure: Cotton plants were sprayed with an aqueous solution of the formulated compound to be examined. After drying, leaves were cut off, placed into a Petri dish and populated with 5 L2 larvae of the sugar beet armyworm (Spodoptera exigua). After 4 days of storage at about 23° C., the mortality among the larvae was determined. The following examples were active: 1036, 70, 60, 1047, 197.

[12] = tested on: Carpocapsa pomonella; assay: Example D: dipped apples, codling moth L1 larvae mortality; details: 500 ppm or less, after 14 days
Procedure: Apples were dipped into an aqueous solution of the formulated compound to be examined. The apples were then populated with 10 L1 larvae of the codling moth (Carpocapsa pomonella). After 14 days of storage at about 25° C., the effect of the compound on the larvae was determined (mortality). The compounds of the following examples were active: Nos. 14, 15, 17, 18, 70, 1007, 1008, 1009, 1036, 1038, 197.

[13] = tested on: Heliothis virescens; assay: Example B: tobacco budworm eggs on filter paper/insect diet, mortality; details: 500 ppm or less; 24-hour-old eggs dipped, diet treated; after 6 days
[14] = tested on: Heliothis virescens; assay: Example AB: cotton leaves with larvae sprayed, tobacco budworm mortality; details: 500 ppm or less; cotton leaves with L2 larvae sprayed; after 4 days
Procedure: Cotton leaves were placed into a Petri dish, populated with 5 L2 larvae of the American tobacco budworm (Heliothis virescens) and sprayed with an aqueous solution of the formulated compound to be examined. After 4 days of storage at about 25° C., the mortality among the larvae was determined. The following examples were active: 70, 1047, 197.

[15] = tested on: Aphis fabae; assay: Example R: field bean, root-systemic activity on black bean aphids; details: 500 ppm or less; solution pipetted into bottle; after 3 and 6 days
Procedure: Germinated field bean seeds (Vicia faba) with radicles were transferred into brown glass bottles filled with tap water. Four milliliters of an aqueous solution of the formulated compound to be examined were pipetted into the brown glass bottle. The field bean was then heavily populated with approximately 100 black bean aphids (Aphis fabae). Plant and animals were then stored in a climatized chamber (16 hours of light/day, 25° C., 40–60% relative atmospheric humidity). After 3 and 6 days of storage, the root-systemic activity of the compound on the aphids was determined (mortality). The following examples were active: 184, 186, 305, 220, 265.

[16] = tested on: Meloidogyne incognita; assay: Example H: root gall nematode larvae immobilization (contact activity); details: 500 ppm or less; 2nd stage larvae; 6 days permanent exposure
Procedure: In a glass vessel, an aqueous solution of the formulated compound to be examined was added to about 3000 freshly hatched active (mobile) larvae (2nd development stage) of the root gall nematode (Meloidogyne incognita) (final volume 20 ml). After 6 days of permanent exposure of the nematode larvae, the percentage of the individual larvae immobilized by the activity of the compound was determined in comparison to the untreated controls (contact activity). The compounds of the following examples were active: 39, 52, 159, 161, 162, 163, 164, 165, 1045, 1046, 1047, 179, 183, 187, 1048, 298, 206, 208, 227, 230, 1061, 237, 238, 245, 250, 255, 256, 260, 268, 269, 274, 275, 288, 290.

[17] = tested on: Spodoptera littoralis; assay: Example G: treated L2 larvae and insect diet, Egyptian cotton leafworm mortality; details: 500 ppm or less, after 6 days
Procedure: A Petri dish whose bottom was covered with filter paper and which contained about 5 ml of insect diet is prepared. Five L2 larvae of the Egyptian cotton leafworm (Spodoptera littoralis) were counted into a small beaker. 200 μl of an aqueous solution of the formulated preparation to be examined were pipetted into the beaker. The treated larvae were then poured into the Petri dish, and a further 200 μl of the aqueous solution were distributed over the insect diet. The Petri dish was closed and then stored at about 25° C. in a climatized chamber. After 6 days of storage, the effect of the compound on the larvae was determined (mortality). The compounds of the following examples were active: 29, 70, 60, 159, 1005, 1040, 1042, 1044, 1045, 1046, 1047.

[18] = tested on: Aedes aegypti; assay: Example AG: microtiter plate, yellow fever mosquito larvicidal activity; details: 500 ppm or less, after 3 days
[19] = tested on: Spodoptera exigua; assay: Example S: treated L2 larvae and insect diet, sugar beet army worm mortality; details: 500 ppm or less, after 6 days
Procedure: A Petri dish whose bottom was covered with filter paper and which contains about 5 ml of insect diet is prepared. Five L2 larvae of sugar beet army worm (Spodoptera exigua) were counted into a small beaker. 200 μl of an aqueous solution of the formulated compound to be examined were pipetted into the beaker. The treated larvae were then poured into the Petri dish and a further 200 μl of the aqueous solution were distributed over the insect diet. The Petri dish was closed and then stored at 25° C. in a climatized chamber. After 6 days of storage, the mortality among the larvae was determined. The following examples were active: 1036, 175, 184, 1051, 1054, 1055, 234, 1057, 1059, 1060, 1063, 243, 245, 251, 257, 259, 266, 1065, 1067, 290, 291.

Cc1cc(C(F)(F)F)cc(C#CCN2CCC(C)CC2)n1 [Example 197]
active: effect on the ticks (mortality) [1] | effect on the eggs and hatched larvae (mortality) [2] | effect on the larvae (mortality) [3] | larvicidal action [4] | effect on the fleas (mortality) [5] | mortality among the larvae [6] | effect on the larvae (mortality) [7] | mortality among the larvae [8] | mortality among the leafhopper larvae [9] | effect on the eggs and hatched larvae (mortality) [10] | mortality among the larvae [11] | effect on the larvae (mortality) [12] | effect on the eggs and hatched larvae (mortality) [13] | mortality among the larvae [14]

CC1CCN(CC#Cc2cccc(-c3ccc([N+](=O)[O-])cc3)c2)CC1 [Example 220]
active: root-systemic activity on the aphids (mortality) [15]

CC1CCN(CC#Cc2cc(C(F)(F)F)cc(C(F)(F)F)n2)CC1.Cl [Example 1047]
active: effect on the eggs and hatched larvae (mortality) [2] | effect on the larvae (mortality) [3] | mortality among the larvae [6] | percentage of larvae immobilized (contact activity) [16] | mortality among the larvae [11] | effect on the larvae (mortality) [17] | effect on the eggs and hatched larvae (mortality) [13] | mortality among the larvae [14]

CC1CCN(CC#Cc2cc(C(F)(F)F)cc(Cl)n2)CC1.Cl [Example 1057]
active: effect on the ticks (mortality) [1] | effect on the eggs and hatched larvae (mortality) [2] | larvicidal activity [18] | effect on the fleas (mortality) [5] | mortality among the larvae [19] | effect on the eggs and hatched larvae (mortality) [13]
